Assay results reported in patent US4178442A, “Novel cinnamoyles piperazines and homopiperazines, the method of preparing them and their application in therapeutics” (Delalande S. A., priority 1977, dated 1979).
Where two headings read alike, the source gives them in different places.

System: anaesthetized dog
Assay: Antiangorous activity on anaesthetized dog: consumption of oxygen in the left ventricule and cardiac effort (KATZ's index)
Type: in vivo
Details: for inhibition in vivo at 2.5 mg/kg / inhibition in vivo at 0.625 mg/kg / inhibition in vivo at […] / inhibition in vivo at 1.25 mg/kg: Canis lupus familiaris, iv; for inhibition in vivo at […]: 0.15 mg/kg i.v. slow perfusion
Method: The antiangorous activity was tested on an anaesthetized dog (sodium pentobarbital 30 mg/kg/i.v.).
The consumption of oxygen in the left ventricule was estimated by the product of the coronary venous flow and the coronary arteriovenous difference in oxygen (% volume).
The coronary venous flow was measured at the coronary venous sinus by means of a modified Morawitz cannula, introduced under radioscopic control.
The cardiac effort was estimated according to KATZ's index, by the product of the average arterial pressure and the cardiac frequency.
The cardiac frequency was estimated from the electrocardiogram recorded with D2 derivation.
It should be noted that the compounds tested were injected intravenously with slow perfusion.

[1] = 2.5 mg/kg i.v. slow perfusion, read-out: Diminution in consumption of O2
[2] = 2.5 mg/kg i.v. slow perfusion, read-out: Diminution in the cardiac effort (IK)
[3] = 0.625 mg/kg i.v. slow perfusion
[4] = 0.625 mg/kg i.v. slow perfusion, read-out: Diminution in consumption of O2
[5] = 0.625 mg/kg i.v. slow perfusion, read-out: Diminution in the cardiac effort (IK)
[6] = read-out: Diminution in consumption of O2
[7] = read-out: Diminution in the cardiac effort (IK)
[8] = 1.25 mg/kg i.v. slow perfusion, read-out: Diminution in consumption of O2
[9] = 1.25 mg/kg i.v. slow perfusion, read-out: Diminution in the cardiac effort (IK)

Compound | Diminution in consumption of O2: in time (2.5 mg/kg i.v. slow perfusion) | Diminution in the cardiac effort (IK): in time (2.5 mg/kg i.v. slow perfusion) | inhibition in vivo at 2.5 mg/kg [1] | inhibition in vivo at 2.5 mg/kg [2] | further results
CCOC(=O)c1cc(OC)c(OCC(O)CN2CCN(C(=O)/C=C/c3cc(OC)c(OC)c(OC)c3)CC2)c(OC)c1 (stereo not shown) [780 361] | 30 min | 45 min | 68% | 38% | –
COc1cc(C(C)=O)ccc1OCC(O)CN1CCCN(C(=O)/C=C/c2cc(OC)c(OC)c(OC)c2)CC1 (stereo not shown) [780 269] | 30 min | 60 min | 34% | 40% | –
CNC(=O)Nc1ccc(OCC(O)CN2CCN(C(=O)/C=C/c3cc(OC)c(OC)c(OC)c3)CC2)c2c1OCCCO2 (stereo not shown) [780 456] | – | – | – | – | Diminution in consumption of O2: in time [3]: 15 min; Diminution in the cardiac effort (IK): in time [3]: 30 min; inhibition in vivo at 0.625 mg/kg [4]: 13%; inhibition in vivo at 0.625 mg/kg [5]: 32%
COc1cc(/C=C/C(=O)N2CCN(CCCOc3ccc(NC(C)=O)c4c3OCCO4)CC2)cc(OC)c1OC [771 172] | 15 min | 23 min | 25% | 29% | –
CCCC(=O)c1ccc(OCC(O)CN2CCN(C(=O)/C=C/c3cc(OC)c(OC)c(OC)c3)CC2)cc1 (stereo not shown) [780 302] | 30 min | 30 min | 46% | 14% | –
COc1cc(/C=C/C(=O)N2CCN(CC(O)COc3ccc(C(=O)OC4CCCCC4)c4c3OCCO4)CC2)cc(OC)c1OC (stereo not shown) [780 333] | – | – | – | – | inhibition in vivo at […] [6]: 51%; inhibition in vivo at […] [7]: 21%
COc1cc(/C=C/C(=O)N2CCN(CC(O)COc3ccc(NC(C)=O)c4c3CCC4)CC2)cc(OC)c1OC (stereo not shown) [771 306] | – | – | – | – | Diminution in consumption of O2: in time (1.25 mg/kg i.v. slow perfusion): 15 min; Diminution in the cardiac effort (IK): in time (1.25 mg/kg i.v. slow perfusion): 30 min; inhibition in vivo at 1.25 mg/kg [8]: 58%; inhibition in vivo at 1.25 mg/kg [9]: 38%
COc1cc(/C=C/C(=O)N2CCN(CC(O)COc3ccc(C(C)=O)c4ccccc34)CC2)cc(OC)c1OC (stereo not shown) [771 315] | – | – | – | – | Diminution in the cardiac effort (IK): in time (1.25 mg/kg i.v. slow perfusion): 15 min; inhibition in vivo at 1.25 mg/kg [8]: 11%; inhibition in vivo at 1.25 mg/kg [9]: 29%
COc1cc(/C=C/C(=O)N2CCN(CC(O)COc3ccc(OC)c4c3OCCO4)CC2)cc(OC)c1OC (stereo not shown) [780 009] | – | – | – | – | Diminution in consumption of O2: in time (1.25 mg/kg i.v. slow perfusion): 35 min; Diminution in the cardiac effort (IK): in time (1.25 mg/kg i.v. slow perfusion): 30 min; inhibition in vivo at 1.25 mg/kg [8]: 48%; inhibition in vivo at 1.25 mg/kg [9]: 20%
COc1cc(/C=C/C(=O)N2CCN(CC(O)COc3ccc(NC(C)=O)c4c3OCO4)CC2)cc(OC)c1OC (stereo not shown) [780 346] | – | – | – | – | inhibition in vivo at […] [6]: 43%; inhibition in vivo at […] [7]: 2%
CNC(=O)Nc1ccc(OCC(O)CN2CCN(C(=O)/C=C/c3cc(OC)c(OC)c(OC)c3)CC2)c(Cl)c1 (stereo not shown) [780 189] | 30 min | 45 min | 63% | 30% | –
COc1cc(/C=C/C(=O)N2CCN(CC(O)COc3c(OC)cc(C(C)=O)cc3OC)CC2)cc(OC)c1OC (stereo not shown) [780 359] | – | – | – | – | Diminution in consumption of O2: in time [3]: 45 min; Diminution in the cardiac effort (IK): in time [3]: 30 min; inhibition in vivo at 0.625 mg/kg [4]: 60%; inhibition in vivo at 0.625 mg/kg [5]: 32%
COc1cc(C#N)ccc1OCC(O)CN1CCN(C(=O)/C=C/c2cc(OC)c(OC)c(OC)c2)CC1 (stereo not shown) [771 281] | 30 min | 30 min | 23% | 44% | –
COc1cc(/C=C/C(=O)N2CCN(CC(O)COc3ccc(NC(=O)N4CCOCC4)c4c3OCCO4)CC2)cc(OC)c1OC (stereo not shown) [771 149] | – | – | – | – | inhibition in vivo at […] [6]: 12%; inhibition in vivo at […] [7]: 14%
COc1cc(/C=C/C(=O)N2CCCN(CC(O)COc3ccc(NC(C)=O)c4c3OCCO4)CC2)cc(OC)c1OC (stereo not shown) [780 272] | 90 min | 90 min | 40% | 51% | –
COc1cc(/C=C/C(=O)N2CCN(CC(O)COc3ccc(C(C)=O)cc3F)CC2)cc(OC)c1OC (stereo not shown) [780 353] | 15 min | 15 min | 46% | 16% | –
COc1cc(/C=C/C(=O)N2CCN(CC(O)CSc3cccc4c3OCCO4)CC2)cc(OC)c1OC (stereo not shown) [780 389] | 15 min | 30 min | 32% | 15% | –
